Source: BindingDB's records for doi:10.1111/cbdd.12205 (Srtm University, 2014)

Tests used:
[1] = target: Xanthine dehydrogenase/oxidase (Bos taurus, UniProt P80457); assay: Xanthine Oxidase Activity; details: pH 7.6; 25 °C
Description: The enzyme was preincubated with test compound, dissolved in DMSO (1% v/v), for 5 min and the reaction was initiated by the addition of xanthine.

Alpha-glucosidase MAL12 = Alpha-glucosidase MAL12 (Saccharomyces cerevisiae (strain ATCC 204508 / S288c), UniProt P53341); assay: Alpha-Glucosidase Assay
Description: The assay was performed using isolated phenolics from maize, and inhibition was determined according to previously described method.

Alpha-glucosidase MAL12, sequence (P53341 whole entry): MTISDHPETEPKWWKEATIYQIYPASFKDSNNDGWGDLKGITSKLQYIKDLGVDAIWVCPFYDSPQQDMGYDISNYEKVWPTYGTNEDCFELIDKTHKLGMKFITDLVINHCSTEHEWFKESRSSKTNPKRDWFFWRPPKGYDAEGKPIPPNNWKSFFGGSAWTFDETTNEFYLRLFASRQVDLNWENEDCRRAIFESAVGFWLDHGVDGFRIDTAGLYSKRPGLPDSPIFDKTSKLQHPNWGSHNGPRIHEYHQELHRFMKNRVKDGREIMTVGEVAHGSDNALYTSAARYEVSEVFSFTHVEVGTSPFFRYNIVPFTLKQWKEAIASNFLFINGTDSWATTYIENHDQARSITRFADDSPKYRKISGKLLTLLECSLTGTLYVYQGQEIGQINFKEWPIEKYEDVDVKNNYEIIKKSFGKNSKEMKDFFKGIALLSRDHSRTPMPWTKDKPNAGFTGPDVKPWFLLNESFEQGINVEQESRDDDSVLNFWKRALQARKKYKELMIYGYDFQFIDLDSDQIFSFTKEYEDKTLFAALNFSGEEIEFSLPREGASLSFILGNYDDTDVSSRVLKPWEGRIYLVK
Xanthine dehydrogenase/oxidase, sequence (P80457 whole entry): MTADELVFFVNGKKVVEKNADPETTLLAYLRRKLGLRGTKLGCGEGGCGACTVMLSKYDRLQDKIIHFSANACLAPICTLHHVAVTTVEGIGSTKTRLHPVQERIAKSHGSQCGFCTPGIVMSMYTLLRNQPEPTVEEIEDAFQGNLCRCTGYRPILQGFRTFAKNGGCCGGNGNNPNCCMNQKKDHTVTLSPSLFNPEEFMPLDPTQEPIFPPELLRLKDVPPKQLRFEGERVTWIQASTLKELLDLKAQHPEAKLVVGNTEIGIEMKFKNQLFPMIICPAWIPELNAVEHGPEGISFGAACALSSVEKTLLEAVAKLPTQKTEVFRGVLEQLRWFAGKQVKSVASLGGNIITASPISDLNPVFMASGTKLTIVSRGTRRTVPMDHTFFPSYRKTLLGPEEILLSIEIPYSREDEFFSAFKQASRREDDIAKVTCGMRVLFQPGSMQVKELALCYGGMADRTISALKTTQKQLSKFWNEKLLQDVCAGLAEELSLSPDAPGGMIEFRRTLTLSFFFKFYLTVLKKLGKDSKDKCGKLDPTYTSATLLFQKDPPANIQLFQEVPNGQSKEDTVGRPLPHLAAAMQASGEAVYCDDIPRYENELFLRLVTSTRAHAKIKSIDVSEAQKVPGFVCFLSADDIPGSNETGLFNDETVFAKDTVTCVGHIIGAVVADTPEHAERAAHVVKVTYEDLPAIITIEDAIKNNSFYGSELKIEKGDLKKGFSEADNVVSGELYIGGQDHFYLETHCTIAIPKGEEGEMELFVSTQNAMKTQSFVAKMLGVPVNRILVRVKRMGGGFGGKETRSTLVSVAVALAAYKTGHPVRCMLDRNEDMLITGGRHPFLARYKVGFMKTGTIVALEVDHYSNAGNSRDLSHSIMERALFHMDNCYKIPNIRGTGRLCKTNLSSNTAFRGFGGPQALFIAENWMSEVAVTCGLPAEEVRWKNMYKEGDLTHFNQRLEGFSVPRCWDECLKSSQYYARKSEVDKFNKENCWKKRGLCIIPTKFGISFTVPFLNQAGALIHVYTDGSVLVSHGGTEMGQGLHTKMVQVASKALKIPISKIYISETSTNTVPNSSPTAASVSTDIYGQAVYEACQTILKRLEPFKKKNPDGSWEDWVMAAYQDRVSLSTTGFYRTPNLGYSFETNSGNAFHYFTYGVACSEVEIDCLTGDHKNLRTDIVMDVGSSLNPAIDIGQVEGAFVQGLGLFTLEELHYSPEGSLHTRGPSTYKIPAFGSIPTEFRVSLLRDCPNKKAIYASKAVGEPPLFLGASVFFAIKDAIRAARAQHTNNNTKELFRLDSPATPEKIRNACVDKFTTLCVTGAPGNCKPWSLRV

Structure (SMILES)	IC50 [1]	IC50 (Alpha-glucosidase MAL12)
O=C(O)c1ccc(O)c(O)c1 [Protocatechuic acid (M1)]	5.8 µM	85.1 µM
COc1cc(C(=O)O)ccc1O [4-hydroxy-3-methoxybenzoic acid]	8.5 µM	205 µM
O=C(O)c1c(O)cc(O)cc1O [2,4,6-trihydroxybenzoic acid (M3)]	6.5 µM	113 µM
COc1cc(-c2oc3cc(O)cc(=O)c-3cc2OC2OC(CO)C(O)C(O)C2O)ccc1O [5,7‐dihydroxy‐2‐(4‐hydroxy‐3‐methoxyphenyl)‐3‐ {[(2S,3R,4S,5S,6R)‐3,4,5‐trihydroxy‐6‐ (hydroxymethyl)oxan‐2‐yl]oxy}‐1λ⁴‐chromen‐1‐ylium]	8.7 µM	260 µM

Results, then the compound that gave them:

IC50 [1]	IC50 (Alpha-glucosidase MAL12)	Structure (SMILES)
8.6 µM	246 µM	CC[C@H]1O[C@@H](Oc2c(-c3ccc(O)c(OC)c3)oc3cc(O)cc(=O)c-3c2O)[C@H](O)[C@@H](O)[C@@H]1O [3‐{[(2S,3R,4S,5S,6R)‐6‐ethyl‐3,4,5‐trihydroxyoxan‐2‐ yl]oxy}‐5,7‐dihydroxy‐2‐(4‐hydroxy‐3‐ methoxyphenyl)‐4H‐chromen‐4‐one]
7.2 µM	221 µM	O=c1cc(O)cc2oc(-c3ccc(O)c(O)c3)c(OC3OC(CO)C(O)C(O)C3O)cc1-2 (stereo not drawn) [Cyanidin-3-glucoside (M8)]
6.8 µM	90.8 µM	O=C(O)/C=C/c1ccc(O)cc1 [p-Coumaric Acid]
7 µM	198 µM	O=c1cc(O)cc2oc(-c3ccc(O)cc3)c(OC3OC(CO)C(O)C(O)C3O)cc1-2 [5,7‐dihydroxy‐2‐(4‐hydroxyphenyl)‐3‐ {[(2S,3R,4S,5S,6R)‐3,4,5‐trihydroxy‐6‐ (hydroxymethyl)oxan‐2‐yl]oxy}‐1λ⁴‐chromen‐1‐ylium]
8.2 µM	251 µM	COc1cc(/C=C/C(=O)O)ccc1O [Ferulic acid (M5)]
